Laboratory results published in ChEMBL document CHEMBL2062499, “Synthesis of benzofuran based 1,3,5-substituted pyrazole derivatives: as a new class of potent antioxidants and antimicrobials--a novel accost to amend biocompatibility” (Bioorg Med Chem Lett, 2012).

Columns and labels:
Aspergillus flavus [1] = assay: Antifungal activity against Aspergillus flavus MTCC 3306 at 0.5 mg/ml after 72 hrs by well plate method; format: functional; details: MTCC 3306, 72 h, read-out: DIZ
Candida albicans [2] = assay: Antifungal activity against Candida albicans MTCC 2827 at 1 mg/ml after 72 hrs by well plate method; format: functional; details: MTCC 2827, 72 h, read-out: DIZ
Aspergillus flavus [3] = assay: Antifungal activity against Aspergillus flavus MTCC 3306 at 1 mg/ml after 72 hrs by well plate method; format: functional; details: MTCC 3306, 72 h, read-out: DIZ
Candida albicans [4] = assay: Antifungal activity against Candida albicans MTCC 2827 at 0.5 mg/ml after 72 hrs by well plate method; format: functional; details: MTCC 2827, 72 h, read-out: DIZ
Escherichia coli [5] = assay: Antibacterial activity Escherichia coli ATCC 25922 at 0.5 mg/ml after 24 hrs by well plate method; format: functional; details: ATCC 25922, 24 h, read-out: DIZ
[6] = tested on: Radical scavenging activity; assay: Antioxidant activity assessed as DPPH radical scavenging activity after 20 mins by UV-Vis spectrophotometric analysis; format: functional
Escherichia coli [7] = assay: Antibacterial activity Escherichia coli ATCC 25922 at 1 mg/ml after 24 hrs by well plate method; format: functional; details: ATCC 25922, 24 h, read-out: DIZ
[8] = Antifungal activity against Chrysosporium keratinophilum MTCC 3017 at 1 mg/ml after 72 hrs by well plate method; format: functional
Staphylococcus aureus [9] = assay: Antibacterial activity Staphylococcus aureus ATCC 25923 at 1 mg/ml after 24 hrs by well plate method; format: functional; details: ATCC 25923, 24 h, read-out: DIZ
Pseudomonas aeruginosa [10] = assay: Antibacterial activity Pseudomonas aeruginosa ATCC 27853 at 1 mg/ml after 24 hrs by well plate method; format: functional; details: ATCC 27853, 24 h, read-out: DIZ
Staphylococcus aureus [11] = assay: Antibacterial activity Staphylococcus aureus ATCC 25923 at 0.5 mg/ml after 24 hrs by well plate method; format: functional; details: ATCC 25923, 24 h, read-out: DIZ
Pseudomonas aeruginosa [12] = assay: Antibacterial activity Pseudomonas aeruginosa ATCC 27853 at 0.5 mg/ml after 24 hrs by well plate method; format: functional; details: ATCC 27853, 24 h, read-out: DIZ
[13] = Antifungal activity against Chrysosporium keratinophilum MTCC 3017 at 0.5 mg/ml after 72 hrs by well plate method; format: functional
Liver microsomes = assay: Antioxidant activity in Wistar rat liver microsomes assessed as inhibition of microsomal lipid peroxidation after 15 mins by MDA-TBA assay; format: functional, Microsome

| Structure (SMILES) | IC50 [6] [uM/ml] | IC50 (Liver microsomes) [uM/ml] | zone of inhibition at 500 µg/mL (Aspergillus flavus [1]) [mm] | zone of inhibition at 1000 µg/mL (Candida albicans [2]) [mm] | zone of inhibition at 1000 µg/mL (Aspergillus flavus [3]) [mm] | zone of inhibition at 500 µg/mL (Candida albicans [4]) [mm] | zone of inhibition at 500 µg/mL (Escherichia coli [5]) [mm] | zone of inhibition at 1000 µg/mL (Escherichia coli [7]) [mm] | inhibition zone (IZ) [8] [mm] | zone of inhibition at 1000 µg/mL (Staphylococcus aureus [9]) [mm] | zone of inhibition at 1000 µg/mL (Pseudomonas aeruginosa [10]) [mm] | zone of inhibition at 500 µg/mL (Staphylococcus aureus [11]) [mm] | zone of inhibition at 500 µg/mL (Pseudomonas aeruginosa [12]) [mm] | inhibition zone (IZ) [13] [mm] |
| --- | --- | --- | --- | --- | --- | --- | --- | --- | --- | --- | --- | --- | --- | --- |
| COc1cc(C2CC(c3cc4ccccc4o3)=NN2C(=O)Nc2ccccc2)ccc1O (centres undefined) | 121 | 116 | 1 | 2 | 2 | 1 | 1 | 2 | 3 | 3 | 2 | 2 | 1 | 2 |
| COc1cc(C2CC(c3cc4ccccc4o3)=NN2C(=O)Cl)ccc1O (centres undefined) | 135 | 147 | 1 | 4 | 2 | 3 | 2 | 3 | 3 | 2 | 2 | 1 | 2 | 2 |
| COc1cc(C2CC(c3cc4ccccc4o3)=NN2C(=O)Nc2cccc(O)c2)ccc1O (centres undefined) | 21 | 24 | 1 | 3 | 2 | 1 | 1 | 3 | 2 | 2 | 3 | 1 | 2 | 1 |
| CN[C@@H]1[C@H](O[C@H]2[C@H](O[C@H]3[C@H](O)[C@@H](O)[C@H](N=C(N)N)[C@@H](O)[C@@H]3N=C(N)N)O[C@@H](C)[C@]2(O)C=O)O[C@@H](CO)[C@H](O)[C@H]1O [STREPTOMYCIN] | – | – | – | – | – | – | 10 | 16 | – | 15 | 16 | 10 | 13 | – |
| COc1cc(C2CC(c3cc4ccccc4o3)=NN2C(=O)Nc2ccc(C)cc2)ccc1O (centres undefined) | 37 | 44 | 2 | 3 | 3 | 1 | 4 | 5 | 3 | 4 | 4 | 3 | 3 | 1 |

The next lines start with results.

| IC50 [6] [uM/ml] | IC50 (Liver microsomes) [uM/ml] | Structure (SMILES) | zone of inhibition at 500 µg/mL (Aspergillus flavus [1]) [mm] | zone of inhibition at 1000 µg/mL (Candida albicans [2]) [mm] | zone of inhibition at 1000 µg/mL (Aspergillus flavus [3]) [mm] | zone of inhibition at 500 µg/mL (Candida albicans [4]) [mm] | zone of inhibition at 500 µg/mL (Escherichia coli [5]) [mm] | zone of inhibition at 1000 µg/mL (Escherichia coli [7]) [mm] | inhibition zone (IZ) [8] [mm] | zone of inhibition at 1000 µg/mL (Staphylococcus aureus [9]) [mm] | zone of inhibition at 1000 µg/mL (Pseudomonas aeruginosa [10]) [mm] | zone of inhibition at 500 µg/mL (Staphylococcus aureus [11]) [mm] | zone of inhibition at 500 µg/mL (Pseudomonas aeruginosa [12]) [mm] | inhibition zone (IZ) [13] [mm] |
| --- | --- | --- | --- | --- | --- | --- | --- | --- | --- | --- | --- | --- | --- | --- |
| 25 | 29 | COc1ccc(NC(=O)N2N=C(c3cc4ccccc4o3)CC2c2ccc(O)c(OC)c2)cc1 (centres undefined) | 3 | 5 | 4 | 3 | 1 | 13 | 4 | 2 | 7 | 1 | 5 | 2 |
| 19 | 22 | COc1cc(C2CC(c3cc4ccccc4o3)=NN2C(=O)Nc2ccccc2O)ccc1O (centres undefined) | 1 | 4 | 2 | 3 | 1 | 3 | 4 | 2 | 4 | 1 | 2 | 2 |
| 107 | 121 | COc1cc(C2CC(c3cc4ccccc4o3)=NN2C(=O)Nc2ccc(Cl)cc2)ccc1O (centres undefined) | 7 | 20 | 10 | 17 | 11 | 17 | 9 | 6 | 18 | 4 | 15 | 7 |
